US10654873B2, “Cytotoxic agents and conjugates thereof” (priority 2016, dated 2020)
Entries after “also recorded” stand apart in the source; their conditions may differ. Like-named read-outs stand apart in the source and are kept apart here.

What was measured:
[1] = tested on: HER2-positive tumour cell line, SK-BR-3; assay: In vitro potency / cell viability assay (CellTiter-Glo) in SK-BR-3 cell line; format: cell-based
Description: (§1) Loss of tumour cell viability following treatment with cytotoxic drugs or ADCs in vitro can be measured by growing cell lines in the presence of increasing concentrations of drugs or ADCs and quantifying the loss of proliferation or metabolic activity using CellTiter-Glo® Luminescence reagent (Promega). The protocol describes cell seeding, drug treatment and determination of the cell viability in reference to untreated cells based on ATP synthesis, which is directly related to the number of cells present in the well.
HER2-positive tumour cell line, SK-BR-3 (ATCC-HTB-30), was grown in McCoy's 5A medium complemented with 10% foetal bovine serum, 100 u/mL Penicillin and 100 μg/mL Streptomycin. SK-BR-3 cells were detached, seeded at 5,000 cells per well (100 μL/well) into poly-D-lysine coated clear bottom white-walled 96-well plates and incubated for 24 h at 37° C. and 5% CO2.
Serial dilutions of compounds were prepared in triplicate using the relevant cell culture medium as diluent. The CD30-positive Karpas-299 cells were treated with 50 μL compounds at 2× assay concentration. Medium from the SK-BR-3 assay plates was removed and replaced by 100 μL serially diluted compounds at 1× assay concentration. The assay concentrations are specified in Table 1. The cells were then incubated with the compounds (total volume 100 μL/well), at 37° C. and 5% CO2 for a further 96 h.
(§2) At the end of the incubation, cell viability was measured using the CellTiter-Glo® Luminescence reagent, as described by the manufacturer's instructions. The data was subsequently analysed using a four parameter non-linear regression model.
(§3) Viability was expressed as % of untreated cells and calculated using the following formula: […]
The % viability (Y-axis) was plotted against the logarithm of drug concentration in nM (X-axis) to extrapolate the IC50 values for all compounds.

[2] = Stability of atropisomers on heating in DMSO (HPLC); format: physicochemical; conditions: 50° C., 1 h
Protocol: The stability of the atropisomers was investigated by heating solutions of compounds 80 and 81 in DMSO at 50° C. for 1 h.

[3] = tested on: CD30-positive human T cell lymphoma cell line Karpas-299; assay: In vitro potency / cell viability assay (CellTiter-Glo) in Karpas-299 cell line; format: cell-based; conditions: 96 h incubation
Description: as §1
The CD30-positive human T cell lymphoma cell line Karpas-299 was obtained from Dr Abraham Karpas at the University of Cambridge. The cells were grown in RPMI medium supplemented with 10% foetal bovine serum, 100 U/mL Penicillin and 100 μg/mL Streptomycin. […]
as §2, §3
Loss of tumour cell viability following treatment with ADCs incorporating maytansinoids of the invention was tested by growing cell lines in the presence of increasing concentrations of ADCs and quantifying the loss of proliferation or metabolic activity as described in Example 2. […]

[4] = Stability in mouse serum (LC-Orbitrap-MS); format: in vitro ADME; conditions: 37° C., 4 and 7 days, 90% (v/v) mouse serum, 0.05 mg/mL
Protocol: Solutions of compounds 26 and 78 (comparator) in a 50/50 v/v mixture of DMF:buffer solution (20 mM sodium phosphate, 150 mM sodium chloride, 20 mM EDTA, pH 7.5) (0.5 mg/mL) were diluted to 0.05 mg/mL in mouse serum (90% (v/v) serum content). An aliquot of each sample corresponding to the ‘0’ time point was immediately frozen at −80° C., while the remaining sample was incubated at 37° C. for 7 d. Additional aliquots were taken after 4 and 7 d and frozen at −80° C. Prior to analysis, the samples were removed from the freezer and maytansinoid-related species were extracted from the serum by protein precipitation. Protein precipitation was performed by adding acetonitrile (75% v/v) to each time-point aliquot, and after gentle mixing, allowing the mixtures to stand at 4° C. for 2 h. The precipitated protein was then separated by centrifugation (1400×g, 30 min, 4° C.) and the supernatant containing the extracted maytansinoid-related species were analysed by LC-Orbitrap-MS.
The samples were further diluted with water resulting in a 15% v/v acetonitrile solution. An aliquot (2.5 μL) of each solution was then injected onto a nano-liquid chromatography MS system, consisting of a Dionex ULTIMATE 3000 UPLC fitted with a PepMap C18 column (0.075×150 mm), coupled online to an Orbitrap-MS instrument operated in ES positive mode at 75K resolution using lock mass. […]

[5] = free compounds, as described in Example 2, read-out: Average IC50 (nM) SK-BR-3 Cell line
[6] = Homo sapiens, SK-BR-3, 96 h, 96 h incubation, CellTiter-Glo, read-out: IC50 (nM) SKBR3 Cell line
[7] = Homo sapiens, SK-BR-3, free compounds, as described in Example 2, read-out: Average IC50 (nM) SK-BR-3 Cell line

| SMILES | IC50 [1, 7] [nM] | other results |
| --- | --- | --- |
| COc1cc2cc(c1-c1ccc(N)cc1Cl)N(C)C(=O)C[C@H](OC(=O)C(C)C)[C@]1(C)O[C@H]1[C@H](C)[C@@H]1C[C@@](O)(NC(=O)O1)[C@H](OC)/C=C/C=C(\C)C2 (single isomer, unassigned) [Compound 80] |  | IC50 [1, 5]: 3.6 nM; stability of atropisomers (HPLC chromatograms) [2]: no changes were observed |
| COc1cc2cc(c1-c1ccc(N)cc1Cl)N(C)C(=O)C[C@H](OC(=O)C(C)C)[C@]1(C)O[C@H]1[C@H](C)[C@@H]1C[C@@](O)(NC(=O)O1)[C@H](OC)/C=C/C=C(\C)C2 (single isomer, unassigned) [Compound 81] |  | IC50 [1, 5]: 0.9 nM; stability of atropisomers (HPLC chromatograms) [2]: no changes were observed |
| COc1cc2cc(c1-c1ccc(NC(=O)OC(C)(C)C)cc1)N(C)C(=O)C[C@H](OC(=O)C(C)C)[C@]1(C)O[C@H]1[C@H](C)[C@@H]1C[C@@](O)(NC(=O)O1)[C@H](OC)/C=C/C=C(\C)C2 [Compound 3, 4-(N-Bocamino)phenyl-AP3] |  | IC50 [1, 6]: 4 nM; IC50 [3]: 0.7 nM |
| COc1cc2cc(c1-c1ccc(N)cc1)N(C)C(=O)C[C@H](OC(=O)C(C)C)[C@]1(C)O[C@H]1[C@H](C)[C@@H]1C[C@@](O)(NC(=O)O1)[C@H](OC)/C=C/C=C(\C)C2 [Compound 4] | 1.2 |  |
| COc1cc2cc(c1-c1ccc(N)c(Cl)c1)N(C)C(=O)C[C@H](OC(=O)C(C)C)[C@]1(C)O[C@H]1[C@H](C)[C@@H]1C[C@@](O)(NC(=O)O1)[C@H](OC)/C=C/C=C(\C)C2 [Compound 5] | 1.2 |  |
| COc1cc2cc(c1-c1ccc(NC(=O)CCC(C)S)cc1)N(C)C(=O)C[C@H](OC(=O)C(C)C)[C@]1(C)O[C@H]1[C@H](C)[C@@H]1C[C@@](O)(NC(=O)O1)[C@H](OC)/C=C/C=C(\C)C2 (stereo partly drawn) [Compound 6] | 2.7 |  |
| COc1cc2cc(c1-c1ccc(NC(=O)CCC(C)(C)S)cc1)N(C)C(=O)C[C@H](OC(=O)C(C)C)[C@]1(C)O[C@H]1[C@H](C)[C@@H]1C[C@@](O)(NC(=O)O1)[C@H](OC)/C=C/C=C(\C)C2 [Compound 9] | 7.4 |  |
| COc1cc2cc(c1-c1ccc(NC(=O)CCCS)cc1)N(C)C(=O)C[C@H](OC(=O)C(C)C)[C@]1(C)O[C@H]1[C@H](C)[C@@H]1C[C@@](O)(NC(=O)O1)[C@H](OC)/C=C/C=C(\C)C2 [Compound 12] | 4.2 |  |
| COc1cc2cc(c1-c1ccc(NC(=O)CCS)cc1)N(C)C(=O)C[C@H](OC(=O)C(C)C)[C@]1(C)O[C@H]1[C@H](C)[C@@H]1C[C@@](O)(NC(=O)O1)[C@H](OC)/C=C/C=C(\C)C2 [Compound 15] | 5.4 |  |
| COc1cc2cc(c1-c1ccc(NC(=O)CCC(C)S)c(Cl)c1)N(C)C(=O)C[C@H](OC(=O)C(C)C)[C@]1(C)O[C@H]1[C@H](C)[C@@H]1C[C@@](O)(NC(=O)O1)[C@H](OC)/C=C/C=C(\C)C2 (stereo partly drawn) [Compound 18] | 0.9 |  |
| COc1cc2cc(c1-c1ccc(NC(=O)CCC(C)(C)S)c(Cl)c1)N(C)C(=O)C[C@H](OC(=O)C(C)C)[C@]1(C)O[C@H]1[C@H](C)[C@@H]1C[C@@](O)(NC(=O)O1)[C@H](OC)/C=C/C=C(\C)C2 [Compound 21] | 1.7 |  |
| COc1cc2cc(c1-c1ccc(NC(=O)CCS)c(Cl)c1)N(C)C(=O)C[C@H](OC(=O)C(C)C)[C@]1(C)O[C@H]1[C@H](C)[C@@H]1C[C@@](O)(NC(=O)O1)[C@H](OC)/C=C/C=C(\C)C2 [Compound 23] | 4.2 |  |
| COc1cc2cc(c1-c1ccc(NC(=O)CCC(C)SSC(C)CCC(=O)O)cc1)N(C)C(=O)C[C@H](OC(=O)C(C)C)[C@]1(C)O[C@H]1[C@H](C)[C@@H]1C[C@@](O)(NC(=O)O1)[C@H](OC)/C=C/C=C(\C)C2 (stereo partly drawn) [Compound 26] |  | degradation in mouse serum [4]: no comparable degradation products were observed; also recorded: no degradation products equivalent to A and B |
| COc1cc2cc(c1/C=C/CN)N(C)C(=O)C[C@H](OC(=O)C(C)C)[C@]1(C)O[C@H]1[C@H](C)[C@@H]1C[C@@](O)(NC(=O)O1)[C@H](OC)/C=C/C=C(\C)C2 [Compound 31, reference compound] | 33.4 |  |
| COc1cc2cc(c1-c1ccc(N)cc1)N(C)C(=O)C[C@H](OC(=O)[C@H](C)N(C)C(C)=O)[C@]1(C)O[C@H]1[C@H](C)[C@@H]1C[C@@](O)(NC(=O)O1)[C@H](OC)/C=C/C=C(\C)C2 [Compound 32] | 5.5 |  |
| COc1cc2cc(c1Cl)N(C)C(=O)C[C@H](OC(=O)[C@H](C)N(C)C(=O)CCC(C)SSC(C)CCC(=O)O)[C@]1(C)O[C@H]1[C@H](C)[C@@H]1C[C@@](O)(NC(=O)O1)[C@H](OC)/C=C/C=C(\C)C2 (stereo partly drawn) [Compound 78, reference compound] |  | degradation in mouse serum [4]: significant degradation |
| COc1cc2cc(c1Cl)N(C)C(=O)C[C@H](OC(=O)[C@H](C)N(C)C(=O)CCS)[C@]1(C)O[C@H]1[C@H](C)C1C[C@@](O)(NC(=O)O1)[C@H](OC)/C=C/C=C(\C)C2 [DM1, reference compound] |  | IC50 [1, 6]: 10 nM; IC50 [3]: 9 nM |
